Laboratory results taken from US6403816B1 (Dabur Research Foundation, priority 1997, dated 2002).

Key:
[1] = tested on: human melanoma cell lines, Mel-1, Mel-2, and Mel-4; settings: Mel-1, Mel-2, Mel-4; cited from earlier work
MEL-2 cells = settings: cited from earlier work
[2] = tested on: A431, BC-1, COL-2, HT1080, KB, LNCaP, LU-1, U373, ZR-75-1; settings: cited from earlier work
ECV304 [3] = assay: ECV304 endothelial cell proliferation, MTT assay; format: cell-based, human; settings: concentration causing 50% cytotoxicity; MTT after 72 hours
Experimental: 30 μl of ECV304 cell suspension (50×10^4 cells/ml in RPMI 1640 containing 10% FBS) followed by 150 μl of medium was added to the wells of a 96-well tissue culture plate (Nunc, Denmark) and incubated (37° C., 5% CO2) overnight. […] Each concentration was plated in triplicates. 20μl of medium alone was added to control wells. After 72 hours of incubation an MTT assay (Mosmann, 1983) was performed and percentage inhibition in proliferation of treated cells was calculated with respect to control cells.

DU145 = assay: Tumor cell cytotoxicity assay, prostate; format: cell-based
Text: (§1) The cytotoxicity assays for tumor cells have been described in detail in our application Ser. No. 09/040,856 filed in U.S. on Mar. 18, 1998.

L132 = assay: Tumor cell cytotoxicity assay, lung; format: cell-based
Text: as §1

PA-1 = assay: Tumor cell cytotoxicity assay, ovary; format: cell-based
Text: as §1

HT-29 = assay: Tumor cell cytotoxicity assay, colon; format: cell-based
Text: as §1

ECV304 [4] = assay: Tube-like-structure (TLS) formation of ECV304 cells on Matrigel; format: cell-based, human; settings: 24-48 hours
Experimental: Matrigel (70 μl) was placed into each well of a 96-well culture plate at 4° C. and was allowed to polymerize by incubation at 37° C. for 30 min. ECV304 (1×10^4) cells were seeded on the Matrigel in 200 μl DMEM containing 10% FBS. […] Five different phase-contrast microscopic fields (4×) were viewed and total tube area of the tube-like-structures (TLS) measured using Video Pro 32 Image Analysis system. Percent reduction in total tube area was given as the mean of the data from five fields. Percent inhibition of TLS was calculated with reference to Controls(no drug).

[5] = concentration causing 50% cytotoxicity

Row | Structure (SMILES) | Growth of melanoma cell lines [1] | In vitro growth of MEL-2 cells (MEL-2 cells) | ED50, other cell lines tested [2] | Endothelial ECV304 (ED50) (ECV304 [3]) | Prostate ECS Ratio (DU145; ED50 DU145 / ED50 ECV304) | Prostate DU145 (ED50) (DU145; [5]) | Lung ECS Ratio (L132; ED50 L132 / ED50 ECV304) | Lung L132 (ED50) (L132; [5]) | Ovary ECS Ratio (PA-1; ED50 PA-1 / ED50 ECV304) | Ovary PA-1 (ED50) (PA-1; [5]) | Colon ECS Ratio (HT-29; ED50 HT-29 / ED50 ECV304) | Colon HT-29 (ED50) (HT-29; [5]) | % reduction in total tube area (ECV304 [4]; 0.5 μg/ml) | % reduction in total tube area (ECV304 [4]; 2 μg/ml) | % reduction in total tube area (ECV304 [4]; 4 μg/ml)
1 | C=C(C)[C@@H]1CC[C@]2(C(=O)O)CC[C@]3(C)[C@H](CC[C@@H]4[C@@]5(C)CC[C@H](O)C(C)(C)[C@@H]5CC[C@]43C)[C@@H]12 [Betulinic acid] | inhibited significantly | inhibit in vitro growth | greater than 20 μg/ml | – | – | – | – | – | – | – | – | – | – | – | –
2 | CC(C)C1CCC2(C(=O)O)CCC3(C)C(CCC4C5(C)CCC(=NOCc6ccc([N+](=O)[O-])cc6)C(C)(C)C5CCC43C)C12 (stereo not drawn) [MJ1098-RS] | – | – | – | 0.6 µg/mL | 2.5 | 1.5 µg/mL | 2.1 | 1.3 µg/mL | 2.7 | 1.6 µg/mL | 4.3 | 2.6 µg/mL | 15% | 7.5% | 10%
